# Literature values as cited in US20240124428A1, “HETEROCYCLIC INHIBITORS OF PCSK9” (CARDIO THERAPEUTICS PTY LTD, priority 2020, published 2024).
# Marks after values point to notes of the source that are not given here.
# Columns and labels:
# HepG2 cells = conditions: data from Evison et al. 2020; read-out: HepG2 cytotoxicity IC50; cited from earlier work
# [1] = data from Evison et al. 2020; conditions not given; cited from earlier work
# CYP2D6 = molecular target: T1, CYP2D6 (Homo sapiens, UniProt P10635); conditions: data from Evison et al. 2020; cited from earlier work
# T1 construct: using human liver microsomes; from tissue; host or cells: human liver microsomes
# T1 sequence (P10635 whole entry): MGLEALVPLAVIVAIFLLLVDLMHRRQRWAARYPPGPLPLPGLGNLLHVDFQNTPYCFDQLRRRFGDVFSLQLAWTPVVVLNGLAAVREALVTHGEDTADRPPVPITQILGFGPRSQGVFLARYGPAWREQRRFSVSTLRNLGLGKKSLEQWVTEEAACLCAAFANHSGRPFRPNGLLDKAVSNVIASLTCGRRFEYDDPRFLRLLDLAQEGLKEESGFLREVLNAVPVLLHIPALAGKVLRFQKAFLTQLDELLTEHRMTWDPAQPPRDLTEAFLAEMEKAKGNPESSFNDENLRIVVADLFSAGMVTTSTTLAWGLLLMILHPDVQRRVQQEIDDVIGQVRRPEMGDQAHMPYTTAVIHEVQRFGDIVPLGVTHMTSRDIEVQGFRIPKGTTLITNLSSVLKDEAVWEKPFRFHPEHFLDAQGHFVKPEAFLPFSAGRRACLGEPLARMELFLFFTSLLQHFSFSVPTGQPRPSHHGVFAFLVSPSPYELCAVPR
# hERG channel = molecular target: T2, hERG channel (Homo sapiens, UniProt Q12809); conditions: data from Evison et al. 2020; cited from earlier work
# T2 construct: expressed in transfected cells; host or cells: CHO
# T2 sequence (Q12809 whole entry): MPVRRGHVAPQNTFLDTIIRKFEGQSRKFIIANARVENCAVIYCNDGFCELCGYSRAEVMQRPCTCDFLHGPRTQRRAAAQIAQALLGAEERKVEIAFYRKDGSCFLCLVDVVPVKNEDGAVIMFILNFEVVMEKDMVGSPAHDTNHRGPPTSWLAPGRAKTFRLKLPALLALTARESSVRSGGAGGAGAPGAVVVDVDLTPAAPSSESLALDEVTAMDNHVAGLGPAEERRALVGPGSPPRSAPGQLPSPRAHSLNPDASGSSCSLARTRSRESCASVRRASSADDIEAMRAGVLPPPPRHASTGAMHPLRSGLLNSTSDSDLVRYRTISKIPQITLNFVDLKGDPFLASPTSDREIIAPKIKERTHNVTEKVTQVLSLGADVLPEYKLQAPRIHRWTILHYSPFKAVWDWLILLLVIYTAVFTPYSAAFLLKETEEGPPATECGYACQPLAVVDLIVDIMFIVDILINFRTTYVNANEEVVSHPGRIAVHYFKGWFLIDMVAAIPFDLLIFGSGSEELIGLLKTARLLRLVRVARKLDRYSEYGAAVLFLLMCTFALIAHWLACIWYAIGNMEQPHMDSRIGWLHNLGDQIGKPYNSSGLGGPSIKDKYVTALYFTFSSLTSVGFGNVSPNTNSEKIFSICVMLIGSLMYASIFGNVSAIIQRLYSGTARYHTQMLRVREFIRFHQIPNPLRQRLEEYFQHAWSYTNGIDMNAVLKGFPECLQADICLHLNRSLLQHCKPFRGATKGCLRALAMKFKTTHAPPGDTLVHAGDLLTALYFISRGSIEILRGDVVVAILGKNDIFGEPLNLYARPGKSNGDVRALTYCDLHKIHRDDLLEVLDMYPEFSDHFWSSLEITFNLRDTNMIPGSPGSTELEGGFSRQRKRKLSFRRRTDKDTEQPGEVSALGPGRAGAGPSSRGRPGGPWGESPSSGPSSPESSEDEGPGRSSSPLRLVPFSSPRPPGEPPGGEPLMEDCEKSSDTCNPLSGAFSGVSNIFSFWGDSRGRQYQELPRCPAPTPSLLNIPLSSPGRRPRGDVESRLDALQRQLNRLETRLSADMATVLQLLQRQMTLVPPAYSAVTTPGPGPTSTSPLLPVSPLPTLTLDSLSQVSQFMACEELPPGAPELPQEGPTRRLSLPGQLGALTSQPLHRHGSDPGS
# [2] = molecular target: T3, binding between PCSK9 and the LDL receptor (Homo sapiens, UniProt Q8NBP7); conditions: comparator; data from Evison et al. 2020; read-out: PCSK9-LDLR binding assay IC50; cited from earlier work
# T3 construct: purchased CircuLex
# T3 sequence (Q8NBP7 153-692): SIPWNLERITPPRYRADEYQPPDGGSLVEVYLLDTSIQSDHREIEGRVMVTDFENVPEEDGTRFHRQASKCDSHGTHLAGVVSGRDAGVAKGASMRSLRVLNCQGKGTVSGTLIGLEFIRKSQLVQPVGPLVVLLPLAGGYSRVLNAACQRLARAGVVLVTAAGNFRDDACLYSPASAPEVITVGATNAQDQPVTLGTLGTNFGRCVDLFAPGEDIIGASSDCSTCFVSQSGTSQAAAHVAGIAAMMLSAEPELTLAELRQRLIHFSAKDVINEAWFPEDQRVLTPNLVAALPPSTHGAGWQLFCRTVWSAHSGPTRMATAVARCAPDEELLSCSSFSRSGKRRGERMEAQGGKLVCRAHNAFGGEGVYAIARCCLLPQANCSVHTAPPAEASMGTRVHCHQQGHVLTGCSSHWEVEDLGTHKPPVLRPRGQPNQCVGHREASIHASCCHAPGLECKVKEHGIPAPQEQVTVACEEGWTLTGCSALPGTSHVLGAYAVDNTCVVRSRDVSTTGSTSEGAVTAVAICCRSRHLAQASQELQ
# T3 sequence (Q8NBP7 31-152 partner limits assumed): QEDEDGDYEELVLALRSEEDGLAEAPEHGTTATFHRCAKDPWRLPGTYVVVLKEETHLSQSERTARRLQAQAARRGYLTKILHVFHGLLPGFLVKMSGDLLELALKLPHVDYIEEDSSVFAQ
# CYP3A4 = molecular target: T4, CYP3A4 (Homo sapiens, UniProt P08684); conditions: data from Evison et al. 2020; cited from earlier work
# T4 construct: using human liver microsomes; from tissue; host or cells: human liver microsomes
# T4 sequence (P08684 whole entry): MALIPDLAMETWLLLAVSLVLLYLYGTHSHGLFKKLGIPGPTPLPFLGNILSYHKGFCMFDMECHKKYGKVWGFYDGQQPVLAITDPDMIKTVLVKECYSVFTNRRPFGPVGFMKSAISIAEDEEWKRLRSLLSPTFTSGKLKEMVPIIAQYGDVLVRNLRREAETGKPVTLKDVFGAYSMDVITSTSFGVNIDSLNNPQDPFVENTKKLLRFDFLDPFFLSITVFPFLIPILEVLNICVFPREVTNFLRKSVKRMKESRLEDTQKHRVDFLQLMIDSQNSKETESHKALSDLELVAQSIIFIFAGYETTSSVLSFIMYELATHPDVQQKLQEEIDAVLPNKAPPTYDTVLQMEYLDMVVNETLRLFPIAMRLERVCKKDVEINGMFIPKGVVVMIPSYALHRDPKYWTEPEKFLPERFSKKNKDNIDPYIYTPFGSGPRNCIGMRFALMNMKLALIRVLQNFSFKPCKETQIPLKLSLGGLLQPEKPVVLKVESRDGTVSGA
structure (smiles),measurement,setting,value
Cc1cn(-c2cc(CN3CCC[C@H](N)C3)cc(NC(=O)c3ccc(C)c(Oc4ccccc4)c3)c2)cn1 [3f],IC50,HepG2 cells,5.23 µM
same,AUClast (h*ng/ml),[1],92.3** h*ng/ml
same,Bioavailability (%),[1],0.5** %
same,CMax (ng/ml),[1],52.5** ng/ml
same,VSS (L/kg),[1],3.87** L/kg
same,CYP2D6 (% inhibition at 10 μM),CYP2D6,82.2%
same,IC50,hERG channel,19 µM
same,IC50,[2],0.939 µM
same,CYP3A4 (% inhibition at 10 μM),CYP3A4,95.0%
